Like-named read-outs stand apart in the source and are kept apart here.
Tests used:
in vivo = details: mouse, mortality over 5 days, confidence limits: 95%
Description: Acute toxicity: The acute toxicity for oral and intravenous administration was evaluated for CD1 male mice of average weight 20 g. The mortality was recorded over a period of 5 days following the administration of the compounds.

β1 -adrenergic receptors = biological target: T1, β1 -adrenergic receptors (Rattus norvegicus, UniProt P18090); experiment: Studies on isolated organs: antagonism of isoprenaline-induced tachycardia and increase in contractile force in isolated rat auricles (pA2); design: species or system rats; details: for Effect on inotropism, ratio of activity to that of metoprolol: isoprenaline contractile force; for Effect on inotropism, ratio of activity to that of metoprolol / Effect on chronotropism, ratio of activity to that of metoprolol: metoprolol = 1.0; for Kb / pA2, effect on chronotropism / pA2, effect on inotropism: 31° C.
T1 construct: from tissue; host or cells: isolated rat auricles (atria)

[1] = intravenous administration, read-out: LD50 intravenous administration
[2] = oral administration, read-out: LD50 oral administration
[3] = isoprenaline increase in contractile force, read-out: pA2, effect on inotropism (converted)
[4] = isoprenaline tachycardia, read-out: pA2, effect on chronotropism (converted)
[5] = isoprenaline increase in contractile force

T1 sequence (P18090 whole entry): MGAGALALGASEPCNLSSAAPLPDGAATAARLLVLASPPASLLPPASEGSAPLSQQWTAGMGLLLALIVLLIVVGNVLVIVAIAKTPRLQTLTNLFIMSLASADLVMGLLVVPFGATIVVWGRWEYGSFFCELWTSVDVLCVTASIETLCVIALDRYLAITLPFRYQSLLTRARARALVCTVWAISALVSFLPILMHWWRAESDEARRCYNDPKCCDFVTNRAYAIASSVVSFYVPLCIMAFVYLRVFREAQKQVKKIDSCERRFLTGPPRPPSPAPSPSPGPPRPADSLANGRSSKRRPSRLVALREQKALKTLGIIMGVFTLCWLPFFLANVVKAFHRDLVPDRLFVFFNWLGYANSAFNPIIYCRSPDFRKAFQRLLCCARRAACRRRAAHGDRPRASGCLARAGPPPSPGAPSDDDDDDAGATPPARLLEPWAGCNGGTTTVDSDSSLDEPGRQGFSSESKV

SMILES: CC(C)NCC(O)COc1ccc(COCC2CC2)cc1 (stereo not shown) [SL D.224, 1-[4-(cyclopropylmethoxymethyl)-phenoxy]-3-isopropylamino-propan-2-ol]
- LD50 at 120 h (in vivo; [1]): 88 mg/kg
- LD50 at 120 h (in vivo; [2]): 1400 mg/kg

SMILES: CC(C)NCC(O)COc1ccc(OCCOCC2CC2)cc1 (stereo not shown) [SL D.177, 1-{4-[2-(cyclopropylmethoxy)-ethoxy]-phenoxy}-3-isopropylamino-propan-2-ol]
- LD50 at 120 h (in vivo; [1]): 76 mg/kg
- LD50 at 120 h (in vivo; [2]): 610 mg/kg
- Effect on inotropism, ratio of activity to that of metoprolol (β1 -adrenergic receptors): 1.1
- Kb (β1 -adrenergic receptors; [3]): 0.0107 µM
- Kb (β1 -adrenergic receptors; [4]): 0.00813 µM
- Effect on chronotropism, ratio of activity to that of metoprolol (β1 -adrenergic receptors; isoprenaline tachycardia): 2.8

SMILES: CC(C)NCC(O)COc1ccc(OCC2CC2)cc1 (stereo not shown) [SL D.230, 1-[4-(Cyclopropylmethoxy)-phenoxy]-3-isopropylamino-propan-2-ol]
- LD50 at 120 h (in vivo; [1]): 48 mg/kg
- LD50 at 120 h (in vivo; [2]): 750 mg/kg
- Effect on inotropism, ratio of activity to that of metoprolol (β1 -adrenergic receptors): 2.1
- Kb (β1 -adrenergic receptors; [3]): 0.00537 µM
- Kb (β1 -adrenergic receptors; [4]): 0.00501 µM
- Effect on chronotropism, ratio of activity to that of metoprolol (β1 -adrenergic receptors; isoprenaline tachycardia): 4.6

SMILES: CC(C)NCC(O)COc1ccc(COCC2CCC2)cc1 (stereo not shown) [SL E.080]
- Effect on inotropism, ratio of activity to that of metoprolol (β1 -adrenergic receptors): 0.4
- Kb (β1 -adrenergic receptors; [3]): 0.0302 µM
- pA2, effect on chronotropism (β1 -adrenergic receptors; isoprenaline tachycardia): 7.44
- Effect on chronotropism, ratio of activity to that of metoprolol (β1 -adrenergic receptors; isoprenaline tachycardia): 0.6

SMILES: CC(=O)NCCNCC(O)COc1ccc(CCOCC2CCC2)cc1 (stereo not shown) [SL E.025, 1-[4-(2-Cyclobutylmethoxy-ethyl)-phenoxy]-3-(2-acetylamino-ethylamino)-propan-2-ol]
- Effect on inotropism, ratio of activity to that of metoprolol (β1 -adrenergic receptors): 0.2
- pA2, effect on inotropism (β1 -adrenergic receptors; [5]): 7.21
- Kb (β1 -adrenergic receptors; [4]): 0.0372 µM
- Effect on chronotropism, ratio of activity to that of metoprolol (β1 -adrenergic receptors; isoprenaline tachycardia): 0.6

SMILES: CC(C)NCC(O)COc1ccc(CCS(=O)(=O)CC2CCC2)cc1 (stereo not shown) [SL E.060, 1-[4-(2-Cyclobutylmethylsulphonyl-ethyl)phenoxy]-3-isopropylamino-propan-2-ol]
- Effect on inotropism, ratio of activity to that of metoprolol (β1 -adrenergic receptors): 1.0
- pA2, effect on inotropism (β1 -adrenergic receptors; [5]): 7.94
- Kb (β1 -adrenergic receptors; [4]): 0.0117 µM
- Effect on chronotropism, ratio of activity to that of metoprolol (β1 -adrenergic receptors; isoprenaline tachycardia): 1.9

SMILES: CC(C)(C)NCC(O)COc1ccc(OCC2CC2)cc1 (stereo not shown) [SL D.231, 1-[4-(Cyclopropylmethoxy)-phenoxy]-3-t-butylamino-propan-2-ol]
- LD50 at 120 h (in vivo; [1]): 36 mg/kg
- LD50 at 120 h (in vivo; [2]): 1200 mg/kg
- Effect on inotropism, ratio of activity to that of metoprolol (β1 -adrenergic receptors): 0.3
- Kb (β1 -adrenergic receptors; [3]): 0.0339 µM
- Kb (β1 -adrenergic receptors; [4]): 0.0288 µM
- Effect on chronotropism, ratio of activity to that of metoprolol (β1 -adrenergic receptors; isoprenaline tachycardia): 0.8

SMILES: CC(C)(C)NCC(O)COc1ccc(OCCOCC2CC2)cc1 (stereo not shown) [SL D.178, 1-{4-[2-(Cyclopropylmethoxy)-ethoxy]-phenoxy}-3-t-butylamino-propan-2-ol]
- LD50 at 120 h (in vivo; [1]): 53 mg/kg
- LD50 at 120 h (in vivo; [2]): 445 mg/kg
- Effect on inotropism, ratio of activity to that of metoprolol (β1 -adrenergic receptors): 1.0
- Kb (β1 -adrenergic receptors; [3]): 0.011 µM
- Kb (β1 -adrenergic receptors; [4]): 0.02 µM
- Effect on chronotropism, ratio of activity to that of metoprolol (β1 -adrenergic receptors; isoprenaline tachycardia): 1.4

SMILES: CC(C)NCC(O)COc1ccc(OCCOCC2CCC2)cc1 (stereo not shown) [SL E.096, 1-[4-(2-cyclobutylmethoxyethoxy)-phenoxy]-3-isopropylamino-propan-2-ol]
- Effect on inotropism, ratio of activity to that of metoprolol (β1 -adrenergic receptors): 2.2
- Kb (β1 -adrenergic receptors; [3]): 0.00513 µM
- Kb (β1 -adrenergic receptors; [4]): 0.00562 µM
- Effect on chronotropism, ratio of activity to that of metoprolol (β1 -adrenergic receptors; isoprenaline tachycardia): 4.1

SMILES: COCCc1ccc(OCC(O)CNC(C)C)cc1 (stereo not shown) [METOPROLOL, 1-[4-(2-methoxy-ethyl)-phenoxy]-3-isopropylamino-propan-2-ol, reference compound]
- LD50 at 120 h (in vivo; [1]): 62 mg/kg
- LD50 at 120 h (in vivo; [2]): 1050 mg/kg

SMILES: CC(C)NCC(O)COc1ccc(OCCSCC2CC2)cc1 (stereo not shown) [SL D.299, 1-[4-(2-Cyclopropylmethylthio-ethoxy)-phenoxy]-3-isopropylamino-propan-2-ol]
- Effect on inotropism, ratio of activity to that of metoprolol (β1 -adrenergic receptors): 0.8
- Kb (β1 -adrenergic receptors; [3]): 0.0148 µM
- Kb (β1 -adrenergic receptors; [4]): 0.0174 µM
- Effect on chronotropism, ratio of activity to that of metoprolol (β1 -adrenergic receptors; isoprenaline tachycardia): 1.3

SMILES: CC(CCc1ccc(F)cc1)NCC(O)COc1ccc(CCOCC2CCC2)cc1 (stereo not shown) [SL E.059]
- Effect on inotropism, ratio of activity to that of metoprolol (β1 -adrenergic receptors): 0.02
- Kb (β1 -adrenergic receptors; [3]): 0.692 µM
- pA2, effect on chronotropism (β1 -adrenergic receptors; isoprenaline tachycardia): 5.54

SMILES: CC(C)NCC(O)COc1ccc(CCOCC2CC2)cc1 (stereo not shown) [SL D.212, 1-{4-[2-(Cyclopropylmethoxy)ethyl]-phenoxy}-3-isopropylamino-propan-2-ol]
- LD50 at 120 h (in vivo; [1]): 37 mg/kg
- LD50 at 120 h (in vivo; [2]): 944 mg/kg

SMILES: CC(C)NCC(O)COc1ccc(CCOCC2CCCC2)cc1 (stereo not shown) [SL D.291]
- LD50 at 120 h (in vivo; [1]): 56 mg/kg
- Effect on inotropism, ratio of activity to that of metoprolol (β1 -adrenergic receptors): 0.08
- Kb (β1 -adrenergic receptors; [3]): 0.148 µM
- pA2, effect on chronotropism (β1 -adrenergic receptors; isoprenaline tachycardia): 6.89
- Effect on chronotropism, ratio of activity to that of metoprolol (β1 -adrenergic receptors; isoprenaline tachycardia): 0.2

SMILES: COc1ccc(CCNCC(O)COc2ccc(CCOCC3CCC3)cc2)cc1OC (stereo not shown) [SL E.111]
- Effect on inotropism, ratio of activity to that of metoprolol (β1 -adrenergic receptors): 0.1
- Kb (β1 -adrenergic receptors; [3]): 0.0741 µM
- pA2, effect on chronotropism (β1 -adrenergic receptors; isoprenaline tachycardia): 7.75
- Effect on chronotropism, ratio of activity to that of metoprolol (β1 -adrenergic receptors; isoprenaline tachycardia): 1.3

SMILES: CC(C)NCC(O)COc1ccc(OCCCC2CC2)cc1 (stereo not shown) [SL D.311, 1-(4-Cyclopropylpropoxy-phenoxy)-3-isopropylamino-propan-2-ol]
- LD50 at 120 h (in vivo; [1]): 71 mg/kg
- Effect on inotropism, ratio of activity to that of metoprolol (β1 -adrenergic receptors): 0.2
- Kb (β1 -adrenergic receptors; [3]): 0.0525 µM
- Kb (β1 -adrenergic receptors; [4]): 0.0912 µM
- Effect on chronotropism, ratio of activity to that of metoprolol (β1 -adrenergic receptors; isoprenaline tachycardia): 0.2

SMILES: CC(C)NCC(O)COc1ccc(OCCOCC2CCCC2)cc1 (stereo not shown) [SL E.203]
- Effect on inotropism, ratio of activity to that of metoprolol (β1 -adrenergic receptors): 1.00
- Kb (β1 -adrenergic receptors; [3]): 0.0107 µM
- Kb (β1 -adrenergic receptors; [4]): 0.0055 µM
- Effect on chronotropism, ratio of activity to that of metoprolol (β1 -adrenergic receptors; isoprenaline tachycardia): 4.17

SMILES: CC(C)NCC(O)COc1ccc(CCCOCC2CCC2)cc1 (stereo not shown) [SL E.061]
- Effect on inotropism, ratio of activity to that of metoprolol (β1 -adrenergic receptors): 0.1
- Kb (β1 -adrenergic receptors; [3]): 0.0891 µM
- pA2, effect on chronotropism (β1 -adrenergic receptors; isoprenaline tachycardia): 7.02
- Effect on chronotropism, ratio of activity to that of metoprolol (β1 -adrenergic receptors; isoprenaline tachycardia): 0.2

SMILES: CC(CC#N)NCC(O)COc1ccc(CCOCC2CCC2)cc1 (stereo not shown) [SL E.024, 1-[4-(2-Cyclobutylmethoxy-ethyl)-phenoxy]-3-(1-methyl-2-cyano-ethylamino)-propan-2-ol]
- Effect on inotropism, ratio of activity to that of metoprolol (β1 -adrenergic receptors): 0.02
- Kb (β1 -adrenergic receptors; [3]): 0.617 µM
- pA2, effect on chronotropism (β1 -adrenergic receptors; isoprenaline tachycardia): 6.47
- Effect on chronotropism, ratio of activity to that of metoprolol (β1 -adrenergic receptors; isoprenaline tachycardia): 0.07

SMILES: CC(C)NCC(O)COc1ccc(CCSCC2CCC2)cc1 (stereo not shown) [SL D.056, 1-[4-(2-Cyclobutylmethylthio-ethyl)-phenoxy]-3-isopropylamino-propan-2-ol]
- Effect on inotropism, ratio of activity to that of metoprolol (β1 -adrenergic receptors): 0.09
- Kb (β1 -adrenergic receptors; [3]): 0.132 µM
- pA2, effect on chronotropism (β1 -adrenergic receptors; isoprenaline tachycardia): 7.11
- Effect on chronotropism, ratio of activity to that of metoprolol (β1 -adrenergic receptors; isoprenaline tachycardia): 0.3

SMILES: CC(C)NCC(O)COc1ccc(CCOCC2CCCCC2)cc1 (stereo not shown) [SL D.268, 1-{4-[2-(Cyclohexylmethoxy)-ethyl]-phenoxy}-3-isopropylamino-propan-2-ol]
- LD50 at 120 h (in vivo; [1]): 35 mg/kg
- Effect on inotropism, ratio of activity to that of metoprolol (β1 -adrenergic receptors): 0.03
- Kb (β1 -adrenergic receptors; [3]): 0.398 µM
- pA2, effect on chronotropism (β1 -adrenergic receptors; isoprenaline tachycardia): 6.84
- Effect on chronotropism, ratio of activity to that of metoprolol (β1 -adrenergic receptors; isoprenaline tachycardia): 0.2

SMILES: CC(C)NCC(O)COc1ccc(CCOCC2CCC2)cc1 (stereo not shown) [SL D.254, 1-{4-[2-(Cyclobutylmethoxy)-ethyl]-phenoxy}-3-isopropylamino-propan-2-ol]
- LD50 at 120 h (in vivo; [1]): 28 mg/kg
- LD50 at 120 h (in vivo; [2]): 658 mg/kg

SMILES: CC(CCc1ccccc1)NCC(O)COc1ccc(CCOCC2CCC2)cc1 (stereo not shown) [SL E.049]
- Effect on inotropism, ratio of activity to that of metoprolol (β1 -adrenergic receptors): 0.01
- Kb (β1 -adrenergic receptors; [3]): 1.23 µM
- pA2, effect on chronotropism (β1 -adrenergic receptors; isoprenaline tachycardia): 5.11

SMILES: CC(C)NCC(O)COc1ccc(OCCS(=O)(=O)CC2CC2)cc1 (stereo not shown) [SL E.155, 1-[4-(2-Cyclopropylmethylsulphonyl-ethoxy)phenoxy]-3-isopropylamino-propan-2-ol]
- Effect on inotropism, ratio of activity to that of metoprolol (β1 -adrenergic receptors): 0.08
- Kb (β1 -adrenergic receptors; [3]): 0.141 µM
- Kb (β1 -adrenergic receptors; [4]): 0.162 µM
- Effect on chronotropism, ratio of activity to that of metoprolol (β1 -adrenergic receptors; isoprenaline tachycardia): 0.1
